In US11999727B2 (Tango Therapeutics, Inc., priority 2020, dated 2024):

Assays:
[1] = test system: HAP1 MTAP-deleted cell line; test: Viability assay, MTAP-deleted cell line; type: cell-based; details: Homo sapiens, HAP1, viability assay, MTAP-deleted cell line; read-out: HAP1 MTAP deleted viability
Source text: Table 1 additionally indicates IC50 values in a viability assay for the MTAP-deleted cell line (column 10), indicating the effect of treatment with compound on cell survival.

[2] = biological target: T1, PRMT5 (Homo sapiens, UniProt O14744); test: PRMT5 biochemical IC50 assay with no cofactor; details: PRMT5, no cofactor; read-out: No Cofactor/rel IC50
T1 construct: purchased Viva (custom protein)
Source text: Table 1 indicates IC50 values (μM) against PRMT5 for exemplary compounds in the presence of SAM as cofactor, with no cofactor, and with MTA as cofactor, respectively (columns 4-6). […] Ki values can be calculated from the IC50 values as described in the Examples section. As detailed in the Examples section, for the assay performed in the presence of SAM, IC50=Ki×1.5 (Ki=IC50/1.5).

[3] = biological target: T1, PRMT5; test: PRMT5 biochemical IC50 assay with MTA as cofactor; details: PRMT5, MTA as cofactor; read-out: MTA IC50
[4] = test system: HAP1 MTAP-intact cell line; test: SDMA in-cell western assay, HAP1 MTAP-intact; type: cell-based; details: Homo sapiens, HAP1, SDMA in-cell western, HAP1 MTAP-intact; read-out: MTAP HAP1 intact IC50
Outline: (§1)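 Compounds were tested in HAP1 cells differing only in MTAP status (endogenous expression versus null). Cellular SDMA levels were then measured by in-cell western, giving an IC50 in each background.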

[5] = biological target: T1, PRMT5; test: PRMT5 biochemical IC50 assay with SAM as cofactor; details: PRMT5, SAM as cofactor; read-out: SAM IC50
[6] = test system: HAP1 MTAP-deleted cell line; test: SDMA in-cell western assay, HAP1 MTAP-deleted; type: cell-based; details: for IC50: Homo sapiens, HAP1, SDMA in-cell western, HAP1 MTAP-deleted, read-out: HAP1 MTAP deleted IC50; for MTAP intact/deleted ratio: IC50 ratio HAP1 MTAP-intact / HAP1 MTAP-deleted, SDMA in-cell western
Outline: as §1

T1 sequence (O14744 whole entry): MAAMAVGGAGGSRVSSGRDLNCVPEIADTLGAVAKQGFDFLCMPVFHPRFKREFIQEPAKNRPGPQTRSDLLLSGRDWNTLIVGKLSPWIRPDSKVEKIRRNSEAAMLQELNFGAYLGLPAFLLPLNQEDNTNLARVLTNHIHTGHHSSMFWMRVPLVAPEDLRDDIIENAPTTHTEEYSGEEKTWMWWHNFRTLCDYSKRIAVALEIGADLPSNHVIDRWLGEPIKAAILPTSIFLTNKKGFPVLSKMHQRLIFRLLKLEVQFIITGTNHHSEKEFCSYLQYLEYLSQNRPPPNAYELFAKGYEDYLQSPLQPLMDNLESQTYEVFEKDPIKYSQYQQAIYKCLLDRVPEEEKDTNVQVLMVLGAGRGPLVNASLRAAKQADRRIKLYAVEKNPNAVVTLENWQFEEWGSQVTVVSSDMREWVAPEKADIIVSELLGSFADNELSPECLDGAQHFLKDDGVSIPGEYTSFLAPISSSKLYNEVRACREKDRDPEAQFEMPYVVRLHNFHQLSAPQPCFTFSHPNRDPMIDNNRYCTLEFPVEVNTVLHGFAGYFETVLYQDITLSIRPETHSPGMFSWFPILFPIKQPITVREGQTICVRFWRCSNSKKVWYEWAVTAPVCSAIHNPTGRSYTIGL
T1 sequence (Q9BQA1 whole entry partner): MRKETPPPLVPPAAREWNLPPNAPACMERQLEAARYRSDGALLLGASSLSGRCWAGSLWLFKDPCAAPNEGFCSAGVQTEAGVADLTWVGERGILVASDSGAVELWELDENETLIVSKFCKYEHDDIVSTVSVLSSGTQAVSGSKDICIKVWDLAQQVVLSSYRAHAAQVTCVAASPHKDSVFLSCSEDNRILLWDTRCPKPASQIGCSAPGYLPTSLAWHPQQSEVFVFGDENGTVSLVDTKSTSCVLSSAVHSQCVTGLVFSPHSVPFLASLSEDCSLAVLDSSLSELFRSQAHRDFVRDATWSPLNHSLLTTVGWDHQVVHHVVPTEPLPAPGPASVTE

| Structure (SMILES) | IC50 [2] | IC50 [3] | IC50 [4] | IC50 [5] | IC50 [6] | IC50 [1] | MTAP intact/deleted ratio [6] |
| --- | --- | --- | --- | --- | --- | --- | --- |
| Cc1c(NC(=O)C(=O)N2C[C@@H](C)CC[C@@H]2c2ccc(O)cc2)cnc(N)c1C (single isomer, unassigned) [Compound 383] | 50 to 500 nM | < 50 nM | > 1000 nM | 50 to 500 nM | < 100 nM | < 1000 nM | A (an IC50 ratio greater than or equal to 10 fold) |
| Cc1cc(NC(=O)C(=O)N2CCCC[C@H]2c2cccc(N(C)C)c2)cnc1N (single isomer, unassigned) [Compound 384] | < 50 nM | < 50 nM | > 1000 nM | 50 to 500 nM | < 100 nM | < 1000 nM | A (an IC50 ratio greater than or equal to 10 fold) |
| Cc1cc(NC(=O)C(=O)N2C[C@H](C)CC[C@H]2c2cccc(N(C)C)c2)cnc1N (single isomer, unassigned) [Compound 386] | < 50 nM | < 50 nM | 100 to 1000 nM | 50 to 500 nM | < 100 nM | < 1000 nM | A (an IC50 ratio greater than or equal to 10 fold) |
| Cc1cc(NC(=O)C(=O)N2CCCC[C@@H]2c2cccc(N(C)C)c2)cnc1N (single isomer, unassigned) [Compound 390] | > 500 nM | 50 to 500 nM | > 1000 nM | 50 to 500 nM | > 1000 nM | > 10000 nM | B (an IC50 ratio greater than or equal to 3 fold but lower than 10 fold) |
| Cc1c(NC(=O)C(=O)N2C[C@H](C)CC[C@H]2c2ccc(O)cc2)cnc(N)c1C (single isomer, unassigned) [Compound 391] | > 500 nM | > 500 nM | > 1000 nM | > 500 nM | > 1000 nM | > 10000 nM | C (an IC50 ratio of less than 3 fold) |
| C[C@@H]1CC[C@@H]([C@H]2CC[C@@H](O)CC2)N(C(=O)C(=O)Nc2cncc(C(N)=O)c2)C1 (single isomer, unassigned) [Compound 393] | > 500 nM | 50 to 500 nM | > 1000 nM | 50 to 500 nM | > 1000 nM | > 10000 nM | B (an IC50 ratio greater than or equal to 3 fold but lower than 10 fold) |

Continued, in another order:

| IC50 [2] | IC50 [3] | IC50 [4] | IC50 [5] | IC50 [6] | Structure (SMILES) | IC50 [1] | MTAP intact/deleted ratio [6] |
| --- | --- | --- | --- | --- | --- | --- | --- |
| 50 to 500 nM | < 50 nM | > 1000 nM | 50 to 500 nM | 100 to 1000 nM | C[C@H]1CC[C@H]([C@H]2CC[C@H](O)CC2)N(C(=O)C(=O)Nc2cncc(C(N)=O)c2)C1 (single isomer, unassigned) [Compound 394] | 1000 to 10000 nM | A (an IC50 ratio greater than or equal to 10 fold) |
| > 500 nM | > 500 nM | > 1000 nM | > 500 nM | > 1000 nM | C[C@@H]1CC[C@@H]([C@H]2CC[C@H](O)CC2)N(C(=O)C(=O)Nc2cncc(C(N)=O)c2)C1 (single isomer, unassigned) [Compound 395] | > 10000 nM | C (an IC50 ratio of less than 3 fold) |
| > 500 nM | > 500 nM | > 1000 nM | > 500 nM | > 1000 nM | C[C@H]1CC[C@H](c2ccc(N)cc2)N(C(=O)C(=O)Nc2cncc(C(N)=O)c2)C1 (single isomer, unassigned) [Compound 398] | > 10000 nM | B (an IC50 ratio greater than or equal to 3 fold but lower than 10 fold) |
| 50 to 500 nM | < 50 nM | > 1000 nM | 50 to 500 nM | < 100 nM | Cc1cc(NC(=O)C(=O)N2CC[C@@H](C#N)C[C@H]2c2ccccc2)cnc1N (single isomer, unassigned) [Compound 399] | 1000 to 10000 nM | A (an IC50 ratio greater than or equal to 10 fold) |
